Series [1] relates to uninfected CD4 T cells and CD8 T cells. Type of series: cell-based, human. As for the experimental part: (§1) PBMC were infected with a high HIV-1 dose, incubated for three days with indicated concentrations of Gd-Tex, and assessed for annexin-V by flow cytometry. Live CD3 cells were gated and apoptotic percentages quantified for CD4 and CD8 cells.
At Gd-Tex doses below 250 µM, GSH depletion and Gd-Tex toxicity in CD8 T cells and uninfected CD4 T cells was minimal. […] These findings are shown in FIG. 4-5, in which data are shown for subset-defining cell surface marker expression, HIV infection, intracellular GSH and Gd-Tex toxicity (induction of apoptosis and the breaking of the cell permeability barrier), all measured simultaneously for individual cells by 11-color, 13-parameter Hi-D FACS.

For series [2], the system named is HIV-1 infected CD4 T cells. Kind of series: Killing / apoptosis (annexin-V, intracellular p24, EMA) of HIV-1 infected CD4 T cells by FACS. In kind it is cell-based, human. As for the experimental part:
as §1
PBMC were infected with high and low HIV-1 doses and treated for six days with the indicated concentrations and processed as indicated above.
Live CD4 T cells were gated and analyzed for annexin-V and p24 stain.
IL-2 activated, HIV-infected cultures were treated with Gd-Tex at the indicated concentrations for 6 days and processed for flow cytometry. […] Histograms are representative of 4 independent experiments.
(In general: Flow cytometry measures light scatter and fluorescence of single cells or particles in a stream.)

Series [3] concerns HIV-1. The settings on record: HIV-1 infected PBMC, TCID50=300/1×10^6 cells, FIG. 5.
Series [4] deals with glutathione (GSH). Kind of series: Intracellular glutathione levels by monochlorobimane fluorescence (flow cytometry). Type of series: cell-based, human. As for the experimental part: PBMC were isolated and HIV-1 infected as described in materials and methods. Intracellular glutathione levels were assessed using monochlorobimane fluorescence and samples were analyzed by flow cytometry.

Molecules are shown by their SMILES.

As for `CC(=O)[O-].CC(=O)[O-].CCc1c(CC)c2cc3nc(cnc4cc(OCCOCCOCCOC)c(OCCOCCOCCOC)cc4ncc4nc(cc1[n-]2)C(CCCO)=C4C)C(C)=C3CCCO.O.[Gd+3]` [Gd-Tex, motexafin gadolinium], in series [1], the “Gd-Tex toxicity in CD8 T cells and uninfected CD4 T cells” value is “minimal”; the “Killing of uninfected CD4 T cells and CD8 T cells” value is given as “did not kill”. The “Killing of HIV-infected (p24+) CD4 T cells” value in series [2] (3 uM Gd-Tex) was “selectively killed”. In addition, the “p24 cells among live CD4 T cells infected with HIV-1” value in series [2] (50 μM Gd-Tex, 6 days) is recorded as “decrease of p24 cells”. Also, the “Apoptosis induction in HIV-1 infected CD4 T cells” value in series [2] (Gd-Tex concentrations not cytotoxic to uninfected cells) is on record as “selectively induced apoptosis”. Also, the “HIV-1 production (RT activity, p24 levels)” value in series [3] is “inhibition of HIV-1 production”. For the same molecule, the “GSH depletion in CD8 T cells and uninfected CD4 T cells” value in series [4] (Gd-Tex doses below 250 µM) is “minimal”. For the same molecule, the “GSH depletion in T cells in PBMC” value in series [4] (high doses of Gd-Tex) is on record as “depleted GSH”.

Source of the values: patent publication US20050118572A1, “Single cell assessment of viral infection/replication” (The Board of Trustees of the Leland Stanford Junior …, priority 2002, published 2005).
